Measurements reported in US11065239B2, “Use of EZH2 inhibitor combined with BTK inhibitor in preparing drug for treating tumor” (Jiangsu Hengrui Medicine Co., Ltd., priority 2017, dated 2021).

Tests used:
[1] = tested on: human B cell lymphoma DOHH-2 cells; test: Proliferation of DOHH-2 cells in vitro (MTT); format: cell-based; conditions: single compound, 72 hours
Protocol: Cell line: human B cell lymphoma DOHH-2 cells (purchased from DSMZ), cultured in vitro in RPMI 1640 medium containing 10% fetal bovine serum (FBS).
(§1) Each of the test compounds was all formulated with DMSO into a 10 mM stock solution, which was formulated into the desired concentration with serum-free medium when used.
(§2) A certain number of cells in logarithmic growth phase was inoculated in a 96-well culture plate. After 24 hours, the cells were added with the test compounds in different concentrations (1-100000 nM), and incubated for 72 hours. Each well was added with the MTT working solution. After 4 hours, the cells were lysed with the triple solution, and the OD value was measured at a wavelength of 570 nm by a microplate reader. […]
The half effective concentration IC50 was calculated using the non-linear regression method according to the inhibition, rate of each concentration.
(§3) In the combined administration, the concentration ratio of compound A to compound B was 1:10. The combination index (CI) was calculated with Calcu-Syn program using the median effect method to evaluate the relationship between the two compounds during the combined administration (CI<1 refers to synergistic effect, CI=1 refers to additive effect, CI>1 refers to antagonistic effect).

[2] = tested on: human B cell lymphoma SU-DHL-4 cells; test: Proliferation of SU-DHL-4 cells in vitro (MTT); format: cell-based; conditions: single compound, 72 hours
Protocol: (§4) Cell line: human B cell lymphoma SU-DHL-4 and SU-DHL-6 cells (purchased from ATCC), cultured in vitro in RPMI 1640 medium containing 10% fetal bovine serum (FBS).
as §1
as §2, with “(1-40000” for “(1-100000”, “solution (10% SDS, 5% isobutanol, 0.012 mol/L HCl) at 37° C. overnight,” for “solution,”
(§5) The half effective concentration IC50 was calculated using the non-linear regression method according to the inhibition rate of each concentration.
as §3, with “1:2 (for SU-DHL-4) and 1:4 (for SU-DHL-6).” for “1:10.”

[3] = tested on: human B cell lymphoma SU-DHL-6 cells; test: Proliferation of SU-DHL-6 cells in vitro (MTT); format: cell-based; conditions: single compound, 72 hours
Protocol: as §4, §1
as §2, with “(1-40000” for “(1-100000”, “solution (10% SDS, 5% isobutanol, 0.012 mol/L HCl) at 37° C. overnight,” for “solution,”
as §5
as §3, with “1:2 (for SU-DHL-4) and 1:4 (for SU-DHL-6).” for “1:10.”

[4] = tested on: human follicular lymphoma DOHH-2 cells subcutaneous transplantation tumor; test: Subcutaneous transplantation tumor in nude mice inoculated with DOHH-2 cells; format: in vivo, BALB/cA-nude nude mice; conditions: DOHH-2 xenograft, 50 mg/kg each, PO, BID, D 0-20; for Mean tumor volume D 0: baseline at first administration
From the text: Test animals: BALB/cA-nude nude mice, 5-6 weeks old, female, purchased from Shanghai Lingchang Biotechnology Co., Ltd., with laboratory animals use license No.: SCXK (Shanghai) 2013-0018 and animal certificate No.: 2013001818958, feeding condition: SPF grade.
The test compounds were all formulated with 0.2% Tween 80+0.5% CMC solutions, and diluted to the corresponding concentration.
(1) The nude mice were subcutaneously inoculated with lymphoma DOHH-2 cells. When the tumors grown to 100-200 mm^3, the animals were grouped randomly (D0).
(§6) (2) Observation and recording: the tumor volume was measured 2 to 3 times per week, the mice were weighed, and the data were recorded.
(§7) The endpoint is mainly dependent on whether the tumor growth is delayed or whether the mouse is cured. The tumor volume (in mm^3) was measured twice a week with caliper in two dimensions.
(§8) The tumor volume (V) is calculated as: V=0.5×a×b^2, wherein a and b represent length and width, respectively; T/C (%)=(T−T0)/(C−C0)×100, wherein T and C represent the tumor volume at the end of the experiment; T0 and C0 represent the tumor volume at the beginning of the experiment. The T/C value (percentage) is indicative of anti-tumor efficacy.
(§9) (4) Data analysis: the statistics were summarized, including mean and standard error of mean (SEM), statistical analysis of differences in tumor volume between groups, and analysis of data obtained by drug interaction that was carried out at the optimal treatment time point after the last administration (Day 21 after grouping). One-way variance analysis was performed to compare tumor volume and tumor weight between groups. When a […] F-statistic was obtained (p<0.001, treatment variance vs. error variance), the comparison between groups was performed using Games-Howell test. All data were analyzed using SPSS17.0, and P<0.05 was considered as statistically significant.

[5] = tested on: human B cell lymphoma SU-DHL-4 cells subcutaneous transplantation tumor; test: Subcutaneous transplantation tumor in mice inoculated with SU-DHL-4 cells; format: in vivo, SCID.BG mice; conditions: SU-DHL-4 xenograft, PO; for Mean tumor volume D 0: baseline at first administration; for Mean tumor volume D 0 / % T/C D 14 / % tumor inhibition rate D 14 / Mean tumor volume D 14 / Complete regression (number of mice) / Partial regression (number of mice): 50 mg/kg each, BID, D 0-13; for Complete regression (number of mice) / Partial regression (number of mice): 8 mice per group; for tumor completely regressed, fraction of mice / tumor partially regressed, fraction of mice: 50 mg/kg; for tumor partially regressed, fraction of mice: text says QD×14
From the text: Test animals: SCID.BG mice, 5-6 weeks old, female, purchased from Shanghai Lingchang Biotechnology Co., Ltd., with laboratory animals use license No.: SCXK (Shanghai) 2013-0018 and animal certificate No.: 2013001820833, feeding condition: SPF grade.
The test compounds were all formulated with 0.2% Tween 80+0.5% CMC solution, and diluted to the corresponding concentration.
(1) The mice were subcutaneously inoculated with SU-DHL-4 cells (B cell lymphoma SU-DHL-4 cells were purchased from ATCC). When the tumors grown to 100-150 mm^3, the animals were grouped according to the tumor volume (D0).
as §6, §7
as §8, with “efficacy. Tumor growth inhibition rate (TGI) (%)=100−T/C (%);” for “efficacy.”
When the tumor regressed, the tumor growth inhibition rate (TGI) (%)=100−(T−T0)/T0×100
If the tumor volume is smaller than the initial volume, i.e. T<T0 or C<C0, it is defined as partial regression (PR); if the tumor completely disappears, it is defined as complete regression (CR).
as §9, with “14” for “21”, “single-tailed Mann-Whitney statistical analysis” for “the comparison between groups”, “to compare tumor volumes of the two groups,” for “using Games-Howell test. All data were analyzed using SPSS17.0,”

Row | IC50 [1] | IC50 [2] | IC50 [3] | Compound | Mean tumor volume D 0 [4] | % T/C D 21 [4] | % tumor inhibition rate D 21 [4] | Mean tumor volume D 21 [4] | Mean tumor volume D 0 [5] | % T/C D 14 [5] | % tumor inhibition rate D 14 [5] | Mean tumor volume D 14 [5] | Complete regression (number of mice) [5] | Partial regression (number of mice) [5] | tumor completely regressed, fraction of mice [5] | tumor partially regressed, fraction of mice [5]
1 | 325 nM | 1060 nM | 711 nM | CC#CC(=O)N1CC[C@@H](n2cc(-c3ccc(Oc4c(F)cccc4F)cc3)c3c(N)n[nH]c(=O)c32)C1 [Compound A] | 111.1 mm^3 | 51% | 49% | 742.0 mm^3 | 122.4 mm^3 | 24% | 76% | 276.9 mm^3 | 1 | 1 | 1/8 | 1/8
2 | 5920 nM | 2170 nM | 4660 nM | CCc1c(N(CC)C2CCOCC2)cc2oc(CN3CCCCC3)cc2c1C(=O)NCc1c(C)cc(C)[nH]c1=O [Compound B, N-((4,6-dimethyl-2-oxo-1,2-dihydropyridin-3-yl)methyl)-5-ethyl-6-(ethyl(tetrahydro-2H-pyran-4-yl)amino)-2-(piperidin-1-ylmethyl)benzofuran-4-carboxamide] | 107.7 mm^3 | 65% | 35% | 914.1 mm^3 | 126.6 mm^3 | 40% | 60% | 384.7 mm^3 | 1 | 2 | 1/8 | 2/8
